# Laboratory results from patent publication US4207418A, “1,2-Ethanediamine salts of nalidixic acid” (Sterling Drug Inc., priority 1978, dated 1980).
# Counter-ions that a name gives are not always drawn. Like-named read-outs stand apart in the source and are kept apart here.
# Tests used:
# [1] = test system: Staphylococcus aureus (Smith); test: In vitro tube dilution test (MIC), Staphylococcus aureus (Smith); assay type: cell-based; conditions: 18-20 hours at 37° C.
# Experimental: (§1) Nalidixic acid, the parent acid, and its 1,2-ethanediamine (1:1) salt were tested in vitro against ten screening organisms and they were also tested against the standard E. coli (Vogel) systemic infection in mice, the latter in vivo study being carried out using three different routes of administration: oral, subcutaneous and intravenous. The materials and methods used in the comparative antibacterial tests are given in the following paragraphs.
# (§2) The parent nalidixic acid was solublized by adding 1.0 ml. of 1 N NaOH to the crystalline acid and water was added to a concentration of 1000 mcg./ml. for the in vitro study or saline to a concentration of 2.5 or 5.0 mg./ml. for the in vivo study. A stock solution of nalidixic acid 1,2-ethanediamine (1:1) salt was prepared from the 1:2 salt according to Example 5 above (refer to Solution 5B); in saline this solution has a concentration equivalent of the nalidixic acid of 47.6 mg./ml. for in vivo studies. A concentration equivalent of the acid of 1000 mcg./ml. for the in vitro studies was obtained by dilution of the stock solution. […]
# (§3) The compounds were tested for antimicrobial activity by a single-row tube dilution method. […] Minimal inhibitory concentrations (lowest drug concentrations showing no visible growth, designated MIC) were read after eighteen-twenty hours incubation at 37° C. The molds were read after five days incubation at 25° C.
# [2] = test system: Klebsiella pneumoniae 39645; test: In vitro tube dilution test (MIC), Klebsiella pneumoniae 39645; assay type: cell-based; conditions: 18-20 hours at 37° C.
# Experimental: as §1, §2, §3
# [3] = test system: Proteus mirabilis MGH-1; test: In vitro tube dilution test (MIC), Proteus mirabilis MGH-1; assay type: cell-based
# Experimental: as §1, §2, §3
# [4] = test system: Proteus vulgaris 9920; test: In vitro tube dilution test (MIC), Proteus vulgaris 9920; assay type: cell-based; conditions: 18-20 hours at 37° C.
# Experimental: as §1, §2, §3
# [5] = test system: Pseudomonas aeruginosa MGH-2; test: In vitro tube dilution test (MIC), Pseudomonas aeruginosa MGH-2; assay type: cell-based; conditions: 18-20 hours at 37° C.
# Experimental: as §1, §2, §3
# [6] = test system: Streptococcus pyogenes C203; test: In vitro tube dilution test (MIC), Streptococcus pyogenes C203; assay type: cell-based; conditions: 18-20 hours at 37° C.
# Experimental: as §1, §2, §3
# [7] = test system: Candida albicans 10231; test: In vitro tube dilution test (MIC), Candida albicans 10231; assay type: cell-based
# Experimental: as §1, §2, §3
# [8] = test system: ten screening organisms; test: In vitro antibacterial tests against ten screening organisms (overall); assay type: cell-based; conditions: in words
# Experimental: as §1, §2, §3
# [9] = test system: Escherichia coli (Vogel); test: Mouse protection test, systemic Escherichia coli (Vogel) infection in mice; assay type: in vivo, Swiss Webster, female; conditions: for ED50 (the dose protecting 50% of the mice) / ED50: dosed 30 minutes after infection, 7 days; for ED50 (the dose protecting 50% of the mice): 10080 min; for ED50: Escherichia coli, 168 h, read-out: ED50 (the dose protecting 50% of the mice)
# Experimental: as §1
# The parent nalidixic acid was solublized by adding 1.0 ml. of 1 N NaOH to the crystalline acid and water was added to a concentration of 1000 mcg./ml. for the in vitro study or saline to a concentration of 2.5 or 5.0 mg./ml. for the in vivo study. A stock solution of nalidixic acid 1,2-ethanediamine (1:1) salt was prepared from the 1:2 salt according to Example 5 above (refer to Solution 5B); in saline this solution has a concentration equivalent of the nalidixic acid of 47.6 mg./ml. for in vivo studies. A concentration equivalent of the acid of 1000 mcg./ml. for the in vitro studies was obtained by dilution of the stock solution.
# Culture for In Vivo Study Escherichia coii (Vogel)
# Mice White, Swiss Webster, female, […].
# The E. coli culture was grown in Brain Heart Infusion broth at 37° C. for sixteen hours after which 0.1 ml. was removed and inoculated into 10 ml. of Brain Heart Infusion broth and incubated for five hours. […] All mice to be infected were inoculated intraperitoneally with 0.5 ml. of the inoculum.
# After inoculation of the organism, the mice were divided into groups of ten. Medication was given to one group of mice at each dose level of each of the […] drugs by each of the three routes of administration. Two groups (twenty mice) were used as infection controls. The drugs were administered thirty minutes after the mice were infected. The dose of drug for i.v. injection was contained in 0.2 ml. Those for oral or subcutaneous administration were contained in 0.5 ml. The mice were examined and deaths were recorded for seven days after inoculation. The ED50 's (the dose protecting 50% of the mice) were calculated using a modified Reed and Muench method.
# [10] = test system: Escherichia coli (Vogel); test: In vitro tube dilution test (MIC), Escherichia coli (Vogel); assay type: cell-based; conditions: 18-20 hours at 37° C., read-out: Minimal Inhibitory Concentration
# Experimental: as §1, §2, §3
# [11] = test system: Aspergillus niger 16404; test: In vitro tube dilution test (MIC), Aspergillus niger 16404; assay type: cell-based; conditions: 120 h, molds read after five days at 25° C., read-out: Minimal Inhibitory Concentration
# Experimental: as §1, §2, §3
# [12] = test system: Trichophyton mentagrophytes 9129; test: In vitro tube dilution test (MIC), Trichophyton mentagrophytes 9129; assay type: cell-based; conditions: 120 h, molds read after five days at 25° C., read-out: Minimal Inhibitory Concentration
# Experimental: as §1, §2, §3
# [13] = read-out: Minimal Inhibitory Concentration
compound,measurement,setting,value
"CCn1cc(C(=O)O)c(=O)c2ccc(C)nc21 [1,2-ED Salt, 1,2-ethanediamine (1:1) salt of nalidixic acid]",Minimal Inhibitory Concentration,[1],31.3 µg/mL
same,Minimal Inhibitory Concentration,[2],31.3 µg/mL
same,Minimal Inhibitory Concentration,[3]; 18-20 hours at 37° C.,15.6 µg/mL
same,Minimal Inhibitory Concentration,[4],1.0 µg/mL
same,Minimal Inhibitory Concentration,[5]; Pseudomonas aeruginosa MGH-2,62.5 µg/mL
same,Minimal Inhibitory Concentration,[6],250 µg/mL
same,Minimal Inhibitory Concentration,[7],500 µg/mL
same,antibacterial activity in standard in vitro tests vs. parent nalidixic acid,[8],as active antibacterially as the corresponding parent nalidixic acid
same,in vitro MIC's compared with MIC's of nalidixic acid,[8]; nine of the ten microorganisms,identical to the MIC's of nalidixic acid against nine of the ten microorganisms examined
same,ED50 (the dose protecting 50% of the mice),[9]; Oral,18.9 mg./kg./dose
same,ED50 (the dose protecting 50% of the mice),[9]; Subcutaneous,17.6 mg./kg./dose
same,ED50 's compared with nalidixic acid in the mouse protection test,[9]; in words,no significant differences
same,antibacterial activity against in vivo bacterial infections in mice vs. parent nalidixic acid,[9]; in words,as active antibacterially as the corresponding parent nalidixic acid
"CCn1cc(C(=O)O)c(=O)c2ccc(C)nc21 [nalidixic acid, 1-ethyl-1,4-dihydro-7-methyl-4-oxo-1,8-naphthyridine-3-carboxylic acid]",MIC,[1]; [13],31.3 µg/mL
same,MIC,[10],3.9 µg/mL
same,MIC,[2]; [13],31.3 µg/mL
same,MIC,"[3]; MGH1, 18-20 hours at 37° C., read-out: Minimal Inhibitory Concentration",15.6 µg/mL
same,MIC,[4]; [13],1 µg/mL
same,MIC,"[5]; Pseudomonas aeruginosa, MGH2, Pseudomonas aeruginosa MGH-2, read-out: Minimal Inhibitory Concentration",125 µg/mL
same,MIC,[6]; [13],250 µg/mL
same,MIC,[7]; [13],500 µg/mL
same,MIC,[11],500 µg/mL
same,MIC,[12],500 µg/mL
same,ED50,"[9]; iv, Intravenous",17.6 mg/kg
same,ED50,"[9]; po, Oral",16.5 mg/kg
same,ED50,"[9]; sc, Subcutaneous",14 mg/kg
